63 compounds from patent publication US12559474B2, “Triazine derivatives having virus replication inhibitory activity and pharmaceutical composition comprising the same” (priority 2021, dated 2026) can be followed below.

This experiment has as its target SARS-CoV-2 3CL protease (Severe acute respiratory syndrome coronavirus 2, UniProt P0DTD1). Put plainly: biochemical. The settings on record: IC50.

With `CN(C(=O)Cn1cc2cc(Nc3nc(=O)n(Cc4ncn(C)n4)c(=O)n3Cc3cc(F)c(F)c(Cl)c3)c(Cl)cc2n1)C1CC1` [II-0155], the half-inhibitory concentration (IC50) (commonly the concentration that inhibits the measured activity by half) is under 100 nM.

For the compound `CC(=O)Nc1nc2ccc(Nc3nc(=O)n(-c4cncc5ccccc45)c(=O)n3Cc3ccc(F)c(C#N)c3)cc2s1` [II-0170], the 50% inhibitory concentration (IC50) was under 100 nM.

`Cc1cncc(-n2c(=O)nc(Nc3ccc4[nH]ncc4c3)n(Cc3ccc(F)c(C#N)c3)c2=O)c1` [II-0206] showed an IC50 of under 100 nM.

In turn, `CC(C)(C)OC(=O)NC12CC(Nc3nc(=O)n(Cc4ccc[nH]c4=O)c(=O)n3Cc3cc(F)c(F)c(F)c3)(C1)C2` [II-0209] registered a concentration for half-maximal inhibition (IC50) of under 100 nM.

`Cn1cnc(Cn2c(=O)nc(Nc3cc4cn(C)nc4cc3Cl)n(Cc3cc(F)cc4c3OCOC4)c2=O)n1` [II-0211] registered an IC50 of under 100 nM.

Compound `COC(=O)c1cccc2c1CN(c1nc(=O)n(Cc3ccc[nH]c3=O)c(=O)n1Cc1cc(F)c(F)c(F)c1)C2` [II-0216] yielded an IC50 of under 100 nM.

For `Cn1cnc(Cn2c(=O)nc(Nc3cc4cn(C)nc4cc3Cl)n(Cc3cccc4cccnc34)c2=O)n1` [II-0224], half-maximal inhibition (IC50) required 1900 nM.

With `Cn1cnc(Cn2c(=O)nc(Nc3cc4cn(C)nc4cc3Cl)n(Cc3c4ccccc4cc4ccccc34)c2=O)n1` [II-0225], the IC50 was 2700 nM.

The compound `O=c1[nH]cccc1Cn1c(=O)nc(NC(c2ccccc2)c2ccccc2O)n(Cc2cc(F)c(F)c(F)c2)c1=O` (stereo not drawn) [II-0229] showed an IC50 of 250 nM.

In turn, `C[C@H](Nc1nc(=O)n(Cc2ccc[nH]c2=O)c(=O)n1Cc1cc(F)c(F)c(F)c1)c1ccccc1` [II-0230] returned an IC50 of 550 nM.

The compound `O=c1[nH]cccc1Cn1c(=O)nc(NC2CC(F)(F)C2)n(Cc2cc(F)c(F)c(F)c2)c1=O` [II-0231] displayed a half-maximal inhibitory concentration (IC50) of 880 nM.

Turning to `CC(=O)NCCn1cc2cc(Nc3nc(=O)n(Cc4ccccn4)c(=O)n3Cc3cc(F)c(F)cc3F)c(Cl)cc2n1` [II-0248], the IC50 is under 100 nM.

`Cn1cc2cc(Nc3nc(=O)n(Cc4cc5[nH]cnc5cn4)c(=O)n3Cc3cc(F)c(F)cc3F)c(Cl)cc2n1` [II-0256] returned an IC50 of 160 nM.

In turn, `CNc1nc2cc(Cl)c(Nc3nc(=O)n(Cc4ncn(C)n4)c(=O)n3Cc3cc(Cl)c(F)cn3)cc2s1` [II-0266] yielded an IC50 of under 100 nM.

Compound `CCn1cc2cc(Nc3nc(=O)n(Cc4ncn(C)n4)c(=O)n3Cc3cc(Cl)c(F)cn3)c(Cl)cc2n1` [II-0268] registered an IC50 of under 100 nM.

For the compound `COc1ccc(Nc2nc(=O)n(CC3(C)COC3)c(=O)n2Cc2cc(F)c(F)c(F)c2)cc1` [II-0274], the IC50 was found to be 3000 nM.

`CN(C)C(=O)Cn1cc2cc(Nc3nc(=O)n(Cc4ncn(C)n4)c(=O)n3Cc3cc(Cl)c(F)cc3F)c(Cl)cc2n1` [II-0276]: the IC50 was under 100 nM.

As for `CN(C)C(=O)Cn1cc2cc(Nc3nc(=O)n(Cc4ncn(C)n4)c(=O)n3Cc3cc(F)c(F)c(Cl)c3)c(Cl)cc2n1` [II-0277], the IC50 was under 100 nM.

The compound `CN(C)C(=O)Cn1cc2cc(Nc3nc(=O)n(Cc4ncn(C)n4)c(=O)n3Cc3cc(F)c(F)cc3F)c(Cl)cc2n1` [II-0280] showed an IC50 of under 100 nM.

Turning to `CNc1nc2cc(F)c(Nc3nc(=O)n(-c4cncc(C)c4)c(=O)n3Cc3cc(F)c(F)c(Cl)c3)cc2s1` [II-0293], the IC50 is under 100 nM.

As to `CC(=O)Nc1nc2cc(Cl)c(Nc3nc(=O)n(Cc4ncn(C)n4)c(=O)n3Cc3cc(F)c(F)c(F)c3)cc2s1` [II-0310], the IC50 was under 100 nM.

As to `CNC(=O)c1cnc2[nH]c(=O)c(Cn3c(=O)nc(Nc4ccc5c(c4)CCO5)n(Cc4cc(F)c(F)c(F)c4)c3=O)cc2c1` [II-0314], the IC50 was under 100 nM.

`CN(C)C(=O)c1cnc2[nH]c(=O)c(Cn3c(=O)nc(Nc4ccc5c(c4)CCO5)n(Cc4cc(F)c(F)c(F)c4)c3=O)cc2c1` [II-0315] showed an IC50 of under 100 nM.

Compound `NC(=O)c1cnc2[nH]c(=O)c(Cn3c(=O)nc(Nc4ccc5c(c4)CCO5)n(Cc4cc(F)c(F)c(F)c4)c3=O)cc2c1` [II-0317] gave an IC50 of under 100 nM.

For the compound `Cn1cnc(Cn2c(=O)nc(Nc3cc4cn(CC(=O)O)nc4cc3Cl)n(Cc3cc(Cl)c(F)cc3F)c2=O)n1` [II-0319], the IC50 was under 100 nM.

Compound `Cn1cnc(Cn2c(=O)nc(Nc3cc4cn(CC(=O)O)nc4cc3Cl)n(Cc3cc(F)c(F)c(Cl)c3)c2=O)n1` [II-0321] registered an IC50 of under 100 nM.

With `COc1ccc(Nc2nc(=O)n(Cc3cc(C(=O)NCc4cnn(C)c4)c[nH]c3=O)c(=O)n2Cc2cc(F)c(F)c(F)c2)cc1` [II-0324], the IC50 is under 100 nM.

`COc1ccc(Nc2nc(=O)n(Cc3cc(C(=O)NCc4ccn(C)n4)c[nH]c3=O)c(=O)n2Cc2cc(F)c(F)c(F)c2)cc1` [II-0325]: the half-inhibitory concentration (IC50) was under 100 nM.

In turn, `COc1ccc(Cc2nc(=O)n(Cc3ccc[nH]c3=O)c(=O)n2Cc2cc(F)c(F)c(F)c2)cc1` [II-0327] showed an IC50 of 1500 nM.

In turn, `CNC(=O)Cn1c(=O)[nH]/c(=N\c2cc3cn(C)nc3cc2Cl)n(Cc2cc(F)c(F)c(F)c2)c1=O` [II-0328] registered an IC50 of under 100 nM.

In the case of `CNC(=O)Cn1c(=O)[nH]/c(=N\c2ccc(OC(F)F)cc2C)n(Cc2cc(F)c(F)c(F)c2)c1=O` [II-0331], the IC50 lay within 1000 to 10000 nM.

`CN(C)C(=O)CCn1cc2cc(Nc3nc(=O)n(Cc4ncn(C)n4)c(=O)n3Cc3cc(Cl)c(F)cc3F)c(Cl)cc2n1` [II-0338] gave an IC50 of under 100 nM.

For `CCNc1nc2cc(Cl)c(Nc3nc(=O)n(Cc4ncn(C)n4)c(=O)n3Cc3cc(Cl)c(F)cn3)cc2s1` [II-0340], the IC50 was under 100 nM.

Take `Cc1cncc(-n2c(=O)nc(Nc3ccc4nnn(C)c4c3)n(Cc3ccc(F)c(C#N)c3)c2=O)c1` [II-0357]: the IC50 was under 100 nM.

As for `Cc1cncc(-n2c(=O)nc(Nc3cc4c(cc3C)nc(C)n4C)n(Cc3ccc(F)c(C#N)c3)c2=O)c1` [II-0358], the IC50 was under 100 nM.

The compound `O=c1[nH]cccc1Cn1c(=O)nc(N[C@@H]2CCN(c3ccccn3)C2)n(Cc2cc(F)c(F)c(F)c2)c1=O` [II-0374] returned an IC50 of 3500 nM.

In turn, `Cn1cnc(Cn2c(=O)cc(Nc3cc4cn(C)nc4cc3Cl)n(Cc3ccc(F)c(C#N)c3)c2=O)n1` [II-0379] yielded an IC50 of under 100 nM.

The compound `Cn1cnc(Cn2c(=O)nc(Nc3cc4c(cc3Cl)nc3n4CCN3)n(Cc3cc(F)c(F)c(Cl)c3)c2=O)n1` [II-0411] registered an IC50 of under 100 nM.

In turn, `Cc1cncc(-n2c(=O)nc(Nc3cc4sc(NS(C)(=O)=O)nc4cc3Cl)n(Cc3ccc(F)c(C#N)c3)c2=O)c1` [II-0427] showed an IC50 of under 100 nM.

The compound `Cn1cnc(Cn2c(=O)nc(Nc3cc4cn(C)nc4cc3Cl)n(Cc3cc(Cl)ccc3O)c2=O)n1` [II-0428] yielded an IC50 of 840 nM.

`Cn1cnc(Cn2c(=O)cc(Nc3cc4cn(CC(F)F)nc4cc3Cl)n(Cc3ccc(F)c(C#N)c3)c2=O)n1` [II-0432] displayed an IC50 of under 100 nM.

Turning to `COc1cnc(NC23CC(Nc4nc(=O)n(Cc5ccc[nH]c5=O)c(=O)n4Cc4cc(F)c(F)c(F)c4)(C2)C3)nc1` [II-0441], the IC50 is under 100 nM.

In turn, `O=c1[nH]cccc1Cn1c(=O)nc(NC23CC(Nc4ncccn4)(C2)C3)n(Cc2cc(F)c(F)c(F)c2)c1=O` [II-0443] came in with an IC50 of under 100 nM.

Compound `Cc1cnc(NC23CC(Nc4nc(=O)n(Cc5ccc[nH]c5=O)c(=O)n4Cc4cc(F)c(F)c(F)c4)(C2)C3)nc1` [II-0444] came in with an IC50 of under 100 nM.

Compound `O=c1[nH]cccc1Cn1c(=O)nc(NC23CC(Nc4ncc(C5CC5)cn4)(C2)C3)n(Cc2cc(F)c(F)c(F)c2)c1=O` [II-0445] showed an IC50 of under 100 nM.

`CN1CC[C@H](n2cc3cc(Nc4nc(=O)n(Cc5ncn(C)n5)c(=O)n4Cc4cc(Cl)c(F)cc4F)c(Cl)cc3n2)C1=O` [II-0447] registered an IC50 of under 100 nM.

In turn, `CN1CC[C@H](n2cc3cc(Nc4nc(=O)n(Cc5ncn(C)n5)c(=O)n4Cc4cc(F)c(F)c(Cl)c4)c(Cl)cc3n2)C1=O` [II-0451] registered an IC50 of under 100 nM.

Take `O=c1[nH]cccc1Cn1c(=O)nc(NC23CC(Nc4ncc(C(F)(F)F)cn4)(C2)C3)n(Cc2cc(F)c(F)c(F)c2)c1=O` [II-0456]: the IC50 was under 100 nM.

`O=c1[nH]cccc1Cn1c(=O)nc(NC23CC(Nc4ncc5ccccc5n4)(C2)C3)n(Cc2cc(F)c(F)c(F)c2)c1=O` [II-0457] returned an IC50 of under 100 nM.

As to `CN1CC[C@H](n2cc3cc(Nc4nc(=O)n(Cc5ncn(C)n5)c(=O)n4Cc4cc(F)c(F)cc4F)c(Cl)cc3n2)C1=O` [II-0465], the IC50 was under 100 nM.

`Cc1cncc(-n2c(=O)nc(Nc3cc4c(=O)n(C)cnc4cc3Cl)n(Cc3ccc(F)c(C#N)c3)c2=O)c1` [II-0467] gave an IC50 of under 100 nM.

Take `Cn1cnc(Cn2c(=O)nc(NC34CC(Nc5ncc(C(F)(F)F)cn5)(C3)C4)n(Cc3cc(F)c(F)c(F)c3)c2=O)n1` [II-0470]: the IC50 was under 100 nM.

In the case of `Cn1cnc(Cn2c(=O)nc(Nc3cc4cn(CC(F)F)nc4cc3F)n(Cc3ccc(F)c(C#N)c3)c2=O)n1` [II-0471], the IC50 is under 100 nM.

`Cn1cnc(Cn2c(=O)nc(NC34CC(Nc5ncc6ccccc6n5)(C3)C4)n(Cc3cc(F)c(F)c(F)c3)c2=O)n1` [II-0472]: the IC50 is under 100 nM.

`Cn1cnc(Cn2c(=O)nc(NC34CC(Nc5ncc(F)cn5)(C3)C4)n(Cc3cc(F)c(F)c(F)c3)c2=O)n1` [II-0473]: the IC50 was under 100 nM.

As to `Cn1cnc(Cn2c(=O)nc(NC34CC(Nc5ncccn5)(C3)C4)n(Cc3cc(F)c(F)c(F)c3)c2=O)n1` [II-0474], the IC50 was under 100 nM.

Compound `O=c1[nH]cccc1Cn1c(=O)nc(NC23CC(Nc4ccccn4)(C2)C3)n(Cc2cc(F)c(F)c(F)c2)c1=O` [II-0476] gave an IC50 of under 100 nM.

The compound `Cc1cncc(-n2c(=O)nc(Nc3cc4c(=O)n(C)cnc4cc3F)n(Cc3ccc(F)c(C#N)c3)c2=O)c1` [II-0480] had a concentration for half-maximal inhibition (IC50) of under 100 nM.

`CNC(=O)c1cccc(C2(Nc3nc(=O)n(Cc4ccc[nH]c4=O)c(=O)n3Cc3cc(F)c(F)c(F)c3)CCC2)c1` [II-0481]: the IC50 turned out to be 100 nM.

In the case of `Cn1cc2cc(Nc3nc(=O)n(-c4cnc5ccccn45)c(=O)n3Cc3ccc(F)c(C#N)c3)c(Cl)cc2n1` [II-0488], the IC50 was under 100 nM.

In turn, `Cn1cnc(Cn2c(=O)nc(Nc3cc4sc(NCC(F)F)nc4cc3Cl)n(Cc3ccc(F)c(C#N)c3)c2=O)n1` [II-0502] had an IC50 of under 100 nM.

`Cn1cnc(Cn2c(=O)nc(Nc3cc4oc(N)nc4cc3Cl)n(Cc3cc(F)c(F)c(F)c3)c2=O)n1` [II-0511] came in with an IC50 of under 100 nM.

Regarding `Cn1cnc(Cn2c(=O)nc(Nc3cc4cn(CCN)nc4cc3Cl)n(Cc3cc(Cl)c(F)cc3F)c2=O)n1` [II-0530], the IC50 was under 100 nM.
